The values that follow come from patent US4904672A, “Derivatives of 3-hydroxyazabenzo[b]thiophene useful as 5-lipoxygenase inhibitors” (Merck & Co., Inc., priority 1988, dated 1990).

The target of the assay is T1, PMN 5-lipoxygenase (Rattus norvegicus, UniProt P12527).
T1 sequence (P12527 1-673): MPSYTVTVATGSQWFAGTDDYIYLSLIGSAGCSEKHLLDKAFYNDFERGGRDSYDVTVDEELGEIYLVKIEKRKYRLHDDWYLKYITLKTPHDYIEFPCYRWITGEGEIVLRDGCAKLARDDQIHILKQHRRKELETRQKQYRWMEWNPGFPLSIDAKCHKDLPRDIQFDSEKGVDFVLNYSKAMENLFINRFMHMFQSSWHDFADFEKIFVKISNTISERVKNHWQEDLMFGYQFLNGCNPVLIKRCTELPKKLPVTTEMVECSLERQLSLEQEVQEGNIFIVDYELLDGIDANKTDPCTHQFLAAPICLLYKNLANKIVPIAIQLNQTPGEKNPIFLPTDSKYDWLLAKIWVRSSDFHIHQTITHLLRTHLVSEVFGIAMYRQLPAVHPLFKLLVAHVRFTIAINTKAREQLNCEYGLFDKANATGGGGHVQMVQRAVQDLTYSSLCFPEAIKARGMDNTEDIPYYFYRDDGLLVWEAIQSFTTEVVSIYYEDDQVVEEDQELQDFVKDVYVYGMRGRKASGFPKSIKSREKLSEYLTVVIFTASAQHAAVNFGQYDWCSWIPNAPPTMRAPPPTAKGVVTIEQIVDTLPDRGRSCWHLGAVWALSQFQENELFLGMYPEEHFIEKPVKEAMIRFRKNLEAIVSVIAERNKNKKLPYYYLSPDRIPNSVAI
The assay is described as follows: Inhibition of PMN 5-lipoxygenase in the rat (LTB4 by RIA, A23187-stimulated PMN). In kind it is cell-based, rat (male Sprague-Dawley). To be noted: for inhibition at 30 µg/mL: dose 0.03 mg/ml; for inhibition at 1000 µg/mL: dose 1 mg/ml; for inhibition at 10 µg/mL: dose 0.01 mg/ml. The procedure:
2. Inhibition of PMN 5-lipoxygenase in the rat Methods
Male Sprague-Dawley rates under ether anesthesia were injected i.p. with 8 mls of 12% aqueous sodium caseinate. After 15-24 hours the animals were sacrificed with CO2 and the peritoneal cavities were lavaged with Eagles MEM with Earles salts and containing L-glutamine and 30 mM HEPES. The pH was adjusted to 7.4. The lavage fluid was centrifuged for 5 minutes at 350×g at room temperature. The cells were resuspended in fresh medium and filtered through lens paper. The cells were pelleted again and reconstituted to concentration of 1×10^7 cells/ml with fresh medium.
The experiments were run as follows: 0.5μ of test compound in DMSO or 0.5 μl DMSO alone was added to reaction tubes. 0.5 ml aliquots of the stirred PMN suspension maintained at 37° C. were then added. After 2 minutes, 0.5 μl of 10 mM A23187 (final concentration=10 μM) or 0.5 μl of DMSO was added and allowed to incubate for 4 additional minutes at 37° C. The reaction was stopped by the addition of 0.5 ml of cold methanol. The precipitated proteins were removed by centrifugation and the supernatant fluid was analyzed via RIA or HPLC.
Radioimmunoassay determinations of LTB4
Radioimmunoassays were performed using the dextran-coated charcoal binding method as described by J. L. Humes in Methods for Studying Mononuclear Phagocytes (Eds. D. Adams et al.) p. 641, Academic Press, N.Y. (1981).
Aliquots, 2 μl, of the supernatant fluids were added to assay tubes and incubated for 10 minutes at 37° C. to remove methanol. Fifty μl of tissue culture medium M-199 containing 1 percent heat-inactivated-porcine serum was then added to each tube. Standard amounts of LTB4 were also prepared in this medium so that 50 μl aliquots contained 25-1000 pg. Antisera to LTB4 was diluted 1:3000 with 10 mM potassium phosphate, pH 7.3 containing 1 mM ethylenediaminetetracetic acid and 0.25 mM thimerasol (PET buffer). Aliquots, 100 μl, of the diluted antisera were added to both standard and unknown tubes and incubated at room temperature for 0.5 hour. (5,6,8,9,11,12,14,15-^3 H)-LTB4 (Amersham, 150 Ci/mMol) was diluted with PET to a concentration of 1 nCi/ml. Aliquots, 100 μl , were added and the mixture incubated for 2 hours at room temperature or alternatively overnight at 4° C. One ml of dextran-coated charcoal solution is added to all tubes. After centrifugation for 10 minutes at 1000×g the radioactivity in the supernatant fluid was determined.
The dextran-coated charcoal removes the unbound ^3 H-LTB4. Therefore in this procedure the antibody-bound-^3 H-LTB4 is measured. The RIA^4 determinations are performed on single samples.

As to `COc1ccc(-c2sc3cc(C)nc(C)c3c2OC(C)=O)cc1`, the inhibition at 30 µg/mL stood at 4%. Besides, the inhibition at 100 µg/mL (dose 0.1 mg/ml) is 45%. This molecule registered an inhibition at 300 µg/mL (dose 0.3 mg/ml) of 75%.

`COc1ccc(-c2sc3cccnc3c2OC(C)=O)cc1` [N=4, R=(CO)CH3, X1=H, X2=p-OCH3, 3-Acetyloxy-2-(4-methoxyphenyl)-4-azabenzo[b]thiophene] yielded an inhibition at 1000 µg/mL of 100%. This molecule returned an inhibition at 100 µg/mL (dose 0.1 mg/ml) of 21%. The molecule also displayed an inhibition at 300 µg/mL (dose 0.3 mg/ml) of 73%.

Regarding `CC(=O)Oc1c(-c2ccccc2)sc2ccncc12` [N=5, R=(CO)CH3, X1=H, X2=H, 3-Acetyloxy-5-aza-2-phenylbenzo[b]thiophene], testing at 37 µg/mL (dose 0.037 mg/ml) gave an inhibition of 58%. Testing at 100 µg/mL (dose 0.1 mg/ml) gave an inhibition of 97%. The inhibition at 300 µg/mL (dose 0.3 mg/ml) was 100%.

Take `COc1ccc(-c2sc3ccncc3c2OC(C)=O)cc1` [N=5, R=(CO)CH3, X1=H, X2=p-OCH3, 3-Acetyloxy-5-aza-2-(4-methoxyphenyl)benzo[b]thiophene]: the inhibition at 37 µg/mL (dose 0.037 mg/ml) stood at 22%. In addition, under “dose 0.1 mg/ml”, the “% Inhibition (PMN 5-lipoxygenase)” value was 60% and the inhibition at 100 µg/mL came out at 80%. Also, where the note is “dose 0.3 mg/ml”, the “% Inhibition (PMN 5-lipoxygenase)” value worked out at 100% and the inhibition at 300 µg/mL came to 99%.

Regarding `Cc1cc2sc(-c3ccccc3)c(O)c2c(C)n1` [N=5, R=H, X1=4-CH3,6-CH3, X2=H], the inhibition at 1000 µg/mL came to 99%. The inhibition at 100 µg/mL (dose 0.1 mg/ml) is 43%. Where the note is “dose 0.3 mg/ml”, this molecule registered an inhibition at 300 µg/mL of 90%.

`COc1ccc(-c2sc3ccncc3c2O)cc1` [N=5, R=H, X1=H, X2=p-OCH3, 5-Aza-3-hydroxy-2-(4-methoxyphenyl)-benzo[b]thiophene] came in with an inhibition at 300 µg/mL (dose 0.3 mg/ml) of 100%. This molecule also yielded an inhibition at 400 µg/mL (dose 0.4 mg/ml) of 63%.

In the case of `COc1ccc(-c2sc3cnccc3c2O)cc1` [N=6, R=H, X1=H, X2=p-OCH3, 3-Hydroxy-2-(4-methoxyphenyl)-6-azabenzo[b]thiophene], the inhibition at 30 µg/mL came to 45%. For the same molecule, the inhibition at 100 µg/mL (dose 0.1 mg/ml) is 79%. For the setting “dose 0.3 mg/ml”, the inhibition at 300 µg/mL was 100%.

The molecule `CC(=O)Oc1c(-c2ccccc2)sc2nccc(Cl)c12` [N=7, R=(CO)CH3, X1=4-Cl, X2=H] showed an inhibition at 1000 µg/mL of 100%. This molecule also yielded an inhibition at 37 µg/mL (dose 0.037 mg/ml) of 22%. The molecule further yielded an inhibition at 100 µg/mL (dose 0.1 mg/ml) of 32%.

With `CC(=O)Oc1c(-c2ccccc2)sc2nc(Cl)ccc12` [N=7, R=(CO)CH3, X1=6-Cl, X2=H], the inhibition at 1000 µg/mL is 100%. The same molecule registered an inhibition at 100 µg/mL (dose 0.1 mg/ml) of 63%. For the setting “dose 0.3 mg/ml”, this molecule showed an inhibition at 300 µg/mL of 82%.

The molecule `CC(=O)Oc1c(-c2ccccc2)sc2ncccc12` [N=7, R=(CO)CH3, X1=H, X2=H, 7-aza-3-acetyloxy-2-phenyl-benzo[b]thiophene] returned an inhibition at 10 µg/mL of 40%. Besides, the inhibition at 37 µg/mL (dose 0.037 mg/ml) turned out to be 95%. Further, the inhibition at 100 µg/mL (dose 0.1 mg/ml) was determined as 100%.

For `COc1cccc(-c2sc3ncccc3c2OC(C)=O)c1` [N=7, R=(CO)CH3, X1=H, X2=m-OCH3], where the note is “dose 0.037 mg/ml”, the inhibition at 37 µg/mL was found to be 52%. This molecule had an inhibition at 100 µg/mL (dose 0.1 mg/ml) of 97%. In addition, the inhibition at 300 µg/mL (dose 0.3 mg/ml) was 100%.

For `COc1ccccc1-c1sc2ncccc2c1OC(C)=O` [N=7, R=(CO)CH3, X1=H, X2=o-OCH3], testing at 30 µg/mL gave an inhibition of 33%. Further, testing at 100 µg/mL (dose 0.1 mg/ml) gave an inhibition of 73%. This molecule displayed an inhibition at 300 µg/mL (dose 0.3 mg/ml) of 100%.

In the case of `CC(=O)Oc1c(-c2ccc(C(F)(F)F)cc2)sc2ncccc12` [N=7, R=(CO)CH3, X1=H, X2=p-CF3], 1000 µg/mL produced 100% inhibition. For the setting “dose 0.1 mg/ml”, the inhibition at 100 µg/mL stood at 61%. Moreover, at 300 µg/mL the inhibition (dose 0.3 mg/ml) was 100%.

Where the note is “dose 0.037 mg/ml”, `CC(=O)Oc1c(-c2ccc(C#N)cc2)sc2ncccc12` [N=7, R=(CO)CH3, X1=H, X2=p-CN] displayed an inhibition at 37 µg/mL of 39%. Further, under “dose 0.1 mg/ml”, testing at 100 µg/mL gave an inhibition of 77%. This molecule also gave an inhibition at 300 µg/mL (dose 0.3 mg/ml) of 100%.

In turn, `CC(=O)Oc1c(-c2ccc(F)cc2)sc2ncccc12` [N=7, R=(CO)CH3, X1=H, X2=p-F, 7-aza-3-acetyloxy-2-(4-fluorophenyl)-benzo[b]thiophene] yielded an inhibition at 10 µg/mL of 24%. Moreover, the inhibition at 37 µg/mL (dose 0.037 mg/ml) is 49%. In addition, under “dose 0.1 mg/ml”, the inhibition at 100 µg/mL came out at 100%.

On to `COc1ccc(-c2sc3ncccc3c2OC(C)=O)cc1` [N=7, R=(CO)CH3, X1=H, X2=p-OCH3], for which, for the setting “dose 0.037 mg/ml”, the “% Inhibition (PMN 5-lipoxygenase)” value was 70% and the inhibition at 37 µg/mL was 59%. The molecule further yielded an inhibition at 100 µg/mL (dose 0.1 mg/ml) of 100%.

In the case of `CC(=O)Oc1c(-c2ccccc2)sc2nc(C(C)(C)C)ccc12` [N=7, R=(CO)CH3, X1=t-Bu, X2=H, 3-Acetoxy-6-(1,1-dimethylethyl)-2-phenyl-7-azabenzo[b]thiophene], the inhibition at 30 µg/mL was found to be 23% and the inhibition at 1000 µg/mL turned out to be 95%. The molecule also had an inhibition at 100 µg/mL (dose 0.1 mg/ml) of 34%. This molecule also showed an inhibition at 300 µg/mL (dose 0.3 mg/ml) of 70%.

As to `Oc1c(-c2ccccc2)sc2ncccc12` [N=7, R=H, X1=H, X2=H, 3-Hydroxy-2-phenyl-7-azabenzo[b]thiophene], under “dose 0.012 mg/ml”, the inhibition at 12 µg/mL stood at 32%. Moreover, testing at 100 µg/mL (dose 0.1 mg/ml) gave an inhibition of 100%.

Take `COc1cccc(-c2sc3ncccc3c2O)c1` [N=7, R=H, X1=H, X2=m-OCH3, 7-Aza-3-hydroxy-2-(3-methoxyphenyl)-benzo[b]thiophene]: testing at 30 µg/mL gave an inhibition of 76%. The same molecule displayed an inhibition at 100 µg/mL (dose 0.1 mg/ml) of 100%. Besides, where the note is “dose 0.3 mg/ml”, the inhibition at 300 µg/mL is 100%.

Molecule `Oc1c(-c2ccc(F)cc2)sc2ncccc12` [N=7, R=H, X1=H, X2=p-F] returned an inhibition at 10 µg/mL of 32%. Under “dose 0.037 mg/ml”, this molecule had an inhibition at 37 µg/mL of 88%. Under “dose 0.1 mg/ml”, this molecule had an inhibition at 100 µg/mL of 99%. This molecule displayed an inhibition at 300 µg/mL (dose 0.3 mg/ml) of 100%.

Regarding `COc1ccc(-c2sc3ncccc3c2O)cc1` [N=7, R=H, X1=H, X2=p-OCH3], at 37 µg/mL the inhibition (dose 0.037 mg/ml) was 24%. This molecule also showed an inhibition at 100 µg/mL (dose 0.1 mg/ml) of 100%.

For the molecule `CC(C)(C)c1ccc2c(O)c(-c3ccccc3)sc2n1` [N=7, R=H, X1=t-Bu, X2=H, 6-(1,1-dimethylethyl)-3-hydroxy-2-phenyl-7-azabenzo[b]thiophene], 1000 µg/mL produced 98% inhibition. The same molecule had an inhibition at 100 µg/mL (dose 0.1 mg/ml) of 53%. Further, 300 µg/mL produced 98% inhibition (dose 0.3 mg/ml).

Molecule `Oc1c(-c2cccnc2)sc2ncccc12` [drawing 24, N=7, R=H, X1=H, X2=H] came in with an inhibition at 30 µg/mL of 0% and an inhibition at 1000 µg/mL of 98%. Also, where the note is “dose 0.1 mg/ml”, the inhibition at 100 µg/mL came out at 39%. Further, the inhibition at 300 µg/mL (dose 0.3 mg/ml) amounted to 94%.

Take `COc1ccc(-c2sc3c[n+]([O-])ccc3c2OC(C)=O)cc1` [drawing 25, N=6, R=(CO)CH3, X1=H]: at 1000 µg/mL the inhibition was 90%. The molecule also came in with an inhibition at 100 µg/mL (dose 0.1 mg/ml) of 33%. Also, 300 µg/mL produced 49% inhibition (dose 0.3 mg/ml).
